Measurements published in ChEMBL document CHEMBL2074515, “Inhibitory effect of anti-diabetic agents on rat organic anion transporter rOAT1” (Eur J Pharmacol, 2000).

Target: T1, Solute carrier family 22 member 6 (Rattus norvegicus, UniProt O35956)
T1 sequence (O35956 whole entry): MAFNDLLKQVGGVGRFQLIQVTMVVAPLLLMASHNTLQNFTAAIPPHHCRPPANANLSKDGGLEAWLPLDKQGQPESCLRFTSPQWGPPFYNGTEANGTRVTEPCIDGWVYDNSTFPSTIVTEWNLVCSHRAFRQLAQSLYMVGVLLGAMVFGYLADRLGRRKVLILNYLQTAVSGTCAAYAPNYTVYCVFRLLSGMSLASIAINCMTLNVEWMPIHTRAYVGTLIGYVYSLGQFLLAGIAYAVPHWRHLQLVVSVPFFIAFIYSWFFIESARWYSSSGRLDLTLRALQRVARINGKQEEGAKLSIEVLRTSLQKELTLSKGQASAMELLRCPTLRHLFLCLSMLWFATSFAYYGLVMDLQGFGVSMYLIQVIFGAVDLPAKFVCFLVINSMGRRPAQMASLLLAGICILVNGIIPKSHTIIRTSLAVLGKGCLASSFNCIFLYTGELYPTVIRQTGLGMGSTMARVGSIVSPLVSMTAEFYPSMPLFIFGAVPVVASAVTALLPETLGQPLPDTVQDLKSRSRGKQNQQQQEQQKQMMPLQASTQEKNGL
Experiment: TP_TRANSPORTER: inhibition of PAH uptake in Xenopus laevis oocytes
Assay type: functional, cell-based, Oocyte

Ki [µM]	SMILES
1.6	COc1ccc(Cl)cc1C(=O)NCCc1ccc(S(=O)(=O)NC(=O)NC2CCCCC2)cc1 [GLYBURIDE]
39.5	CCCNC(=O)NS(=O)(=O)c1ccc(Cl)cc1 [CHLORPROPAMIDE]
55.5	CCCCNC(=O)NS(=O)(=O)c1ccc(C)cc1 [TOLBUTAMIDE]
9.2	CC(C)[C@H]1CC[C@H](C(=O)N[C@H](Cc2ccccc2)C(=O)O)CC1 [NATEGLINIDE]
